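1) Cells in 96-well plates. 2) Compound, 48 h, 5 concentrations. 3) Linear interpolation between surrounding doses. 4) Unreached endpoint = highest concentration. GI50 = concentration required for 50% inhibition of growth. Definition used: TGI = concentration required for complete inhibition of growth.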
Columns and labels:
Assay in all cases: NCI-60 cell line screen, 48 h
[1] = tested on: 786-0 renal
[2] = tested on: A498 renal
[3] = tested on: A549 NSCLC
[4] = tested on: ACHN renal
[5] = tested on: BT-549 breast
[6] = tested on: CAKI-1 renal
[7] = tested on: CCRF-CEM leukemia
[8] = tested on: COLO 205 colon
[9] = tested on: DU-145 prostate
[10] = tested on: EKVX NSCLC
[11] = tested on: HCC-2998 colon
[12] = tested on: HCT-116 colon
[13] = tested on: HCT-15 colon
[14] = tested on: HL-60(TB) leukemia
[15] = tested on: HOP-62 NSCLC
[16] = tested on: HOP-92 NSCLC
[17] = tested on: HS 578T breast
[18] = tested on: HT29 colon
[19] = tested on: IGROV1 ovarian
[20] = tested on: K-562 leukemia
[21] = tested on: KM12 colon
[22] = tested on: LOX IMVI melanoma
[23] = tested on: M14 melanoma
[24] = tested on: MALME-3M melanoma
[25] = tested on: MCF7 breast
[26] = tested on: MDA-MB-231 breast
[27] = tested on: MDA-MB-435
[28] = tested on: MOLT-4 leukemia
[29] = tested on: NCI-H226 lung
[30] = tested on: NCI-H23 lung
[31] = tested on: NCI-H460 lung
[32] = tested on: NCI-H522 lung
[33] = tested on: NCI/ADR-RES ovarian
[34] = tested on: OVCAR-3 ovarian
[35] = tested on: OVCAR-4 ovarian
[36] = tested on: OVCAR-5 ovarian
[37] = tested on: OVCAR-8 ovarian
[38] = tested on: PC-3 prostate
[39] = tested on: RPMI-8226 leukemia
[40] = tested on: RXF 393 renal
[41] = tested on: SF-268 CNS
[42] = tested on: SF-295 CNS
[43] = tested on: SF-539 CNS
[44] = tested on: SK-MEL-2 melanoma
[45] = tested on: SK-MEL-28 melanoma
[46] = tested on: SK-MEL-5 melanoma
[47] = tested on: SK-OV-3 ovarian
[48] = tested on: SN12C renal
[49] = tested on: SNB-19 CNS
[50] = tested on: SNB-75 CNS
[51] = tested on: SR leukemia
[52] = tested on: SW-620 colon
[53] = tested on: T-47D breast
[54] = tested on: TK-10 renal
[55] = tested on: U251 CNS
[56] = tested on: UACC-257 melanoma
[57] = tested on: UACC-62 melanoma
[58] = tested on: UO-31 renal

For `O=C(Nc1cccc(-c2nc(-c3ccc(NC(=O)c4cccs4)cc3Cl)no2)c1)Nc1ccc(NC(=O)C2CC2)c(C(F)(F)F)c1`, the GI50 [1] was 283 nM, the TGI [1] was 1010 nM and the GI50 [2] was 174 nM. For the same compound, the TGI [2] was 742 nM, the GI50 [3] was 246 nM and the TGI [3] was 653 nM. The GI50 [4] was 467 nM, the TGI [4] was 3860 nM and the GI50 [5] was 414 nM. The TGI [5] was 2430 nM, the GI50 [6] was 244 nM and the TGI [6] was 678 nM. It also gave a GI50 [7] of 518 nM, a TGI [7] greater than 35400 nM and a GI50 [8] of 291 nM. The TGI [8] was 903 nM, the GI50 [9] was 317 nM and the TGI [9] was 1130 nM. It also gave a GI50 [10] of 295 nM, a TGI [10] of 1200 nM and a GI50 [11] of 321 nM. For the same compound, the TGI [11] was 1140 nM, the GI50 [12] was 321 nM and the TGI [12] was 1690 nM. For the same compound, the GI50 [13] was 409 nM, the TGI [13] was 1850 nM and the GI50 [14] was 2270 nM. The TGI [14] was greater than 26800 nM, the GI50 [15] was 241 nM and the TGI [15] was 624 nM. The GI50 [16] was 180 nM, the TGI [16] was 450 nM and the GI50 [17] was 230 nM. For the same compound, the TGI [17] was 678 nM, the GI50 [18] was 347 nM and the TGI [18] was 2110 nM. The GI50 [19] was 229 nM, the TGI [19] was 574 nM and the GI50 [20] was 296 nM. It also gave a TGI [20] of 1670 nM, a GI50 [21] of 317 nM and a TGI [21] of 1050 nM. For the same compound, the GI50 [22] was 185 nM, the TGI [22] was 356 nM and the GI50 [23] was 324 nM. The TGI [23] was 1270 nM, the GI50 [24] was 183 nM and the TGI [24] was 376 nM. For the same compound, the GI50 [25] was 220 nM, the TGI [25] was 643 nM and the GI50 [26] was 219 nM. The TGI [26] was 557 nM, the GI50 [27] was 230 nM and the TGI [27] was 547 nM. For the same compound, the GI50 [28] was 359 nM, the TGI [28] was 1790 nM and the GI50 [29] was 227 nM. It also gave a TGI [29] of 601 nM, a GI50 [30] of 226 nM and a TGI [30] of 571 nM. The GI50 [31] was 204 nM, the TGI [31] was 412 nM and the GI50 [32] was 244 nM. The TGI [32] was 729 nM, the GI50 [33] was 3610 nM and the TGI [33] was greater than 100000 nM. For the same compound, the GI50 [34] was 280 nM, the TGI [34] was 778 nM and the GI50 [35] was 223 nM. For the same compound, the TGI [35] was 492 nM, the GI50 [36] was 306 nM and the TGI [36] was 1140 nM. It also gave a GI50 [37] of 311 nM, a TGI [37] of 1330 nM and a GI50 [38] of 209 nM. The TGI [38] was 460 nM, the GI50 [39] was 396 nM and the TGI [39] was 2140 nM. For the same compound, the GI50 [40] was 214 nM, the TGI [40] was 494 nM and the GI50 [41] was 344 nM. It also gave a TGI [41] of 1450 nM, a GI50 [42] of 191 nM and a TGI [42] of 370 nM. The GI50 [43] was 188 nM, the TGI [43] was 381 nM and the GI50 [44] was 343 nM. It also gave a TGI [44] of 1290 nM, a GI50 [45] of 209 nM and a TGI [45] of 450 nM. The GI50 [46] was 478 nM, the TGI [46] was 1870 nM and the GI50 [47] was 795 nM. The TGI [47] was 2990 nM, the GI50 [48] was 220 nM and the TGI [48] was 576 nM. For the same compound, the GI50 [49] was 301 nM, the TGI [49] was 1060 nM and the GI50 [50] was 183 nM. The TGI [50] was 1010 nM, the GI50 [51] was 254 nM and the TGI [51] was 898 nM. It also gave a GI50 [52] of 256 nM, a TGI [52] of 660 nM and a GI50 [53] of 257 nM. The TGI [53] was 972 nM, the GI50 [54] was 338 nM and the TGI [54] was 1540 nM. It also gave a GI50 [55] of 193 nM, a TGI [55] of 414 nM and a GI50 [56] of 836 nM. It also gave a TGI [56] of 3230 nM, a GI50 [57] of 205 nM and a TGI [57] of 527 nM. For the same compound, the GI50 [58] was 993 nM and the TGI [58] was 3090 nM.

— PubChem BioAssay (NCI)
